Test results taken from patent publication US6451807B1, “Methods of treating sexual dysfunction in an individual suffering from a retinal disease, class 1 congestive heart failure, or myocardial infarction using a PDE5 inhibitor” (Lilly Icos, LLC., priority 1999, dated 2002).

Test system: clinical study subjects
Assay: Combined clinical studies, treatment-emergent adverse events
Format: in vivo, human
Excerpt: However, it also was observed from the combined clinical studies that the percent of treatment-emergent adverse events increased with an increasing unit dose of the compound of structural formula (I), as illustrated in the following table.

[1] = unit dose of about 1 to about 20 mg

## CN1CC(=O)N2[C@H](c3ccc4c(c3)OCO4)c3[nH]c4ccccc4c3C[C@@H]2C1=O [Compound 5, (6R-trans)-6-(1,3-benzodioxol-5-yl)-2,3,6,7,12,12a-hexahydro-2-methylpyrazino[1′,2′:1,6]pyrido[3,4-b]indole-1,4-dione]
Unit dose 2 mg
  Treatment-Emergent Adverse Events (%): Back Pain: 3%
  Treatment-Emergent Adverse Events (%): Conjunctivitis: 0%
  Treatment-Emergent Adverse Events (%): Dyspepsia: 3%
  Treatment-Emergent Adverse Events (%): Eyelid Edema: 0%
  Treatment-Emergent Adverse Events (%): Flushing: 0%
  Treatment-Emergent Adverse Events (%): Headache: 12%
  Treatment-Emergent Adverse Events (%): Myalgia: 0%
  Treatment-Emergent Adverse Events (%): Rhinitis: 7%
  Treatment-Emergent Adverse Events (%): Vision Abnormalities: 0%
Unit dose 5 mg
  Treatment-Emergent Adverse Events (%): Back Pain: 3%
  Treatment-Emergent Adverse Events (%): Conjunctivitis: 1%
  Treatment-Emergent Adverse Events (%): Dyspepsia: 14%
  Treatment-Emergent Adverse Events (%): Eyelid Edema: 0%
  Treatment-Emergent Adverse Events (%): Flushing: 0%
  Treatment-Emergent Adverse Events (%): Headache: 10%
  Treatment-Emergent Adverse Events (%): Myalgia: 3%
  Treatment-Emergent Adverse Events (%): Rhinitis: 3%
  Treatment-Emergent Adverse Events (%): Vision Abnormalities: 0%
Unit dose 10 mg
  Treatment-Emergent Adverse Events (%): Back Pain: 15%
  Treatment-Emergent Adverse Events (%): Conjunctivitis: 1%
  Treatment-Emergent Adverse Events (%): Dyspepsia: 13%
  Treatment-Emergent Adverse Events (%): Eyelid Edema: 1%
  Treatment-Emergent Adverse Events (%): Flushing: <1%
  Treatment-Emergent Adverse Events (%): Headache: 23%
  Treatment-Emergent Adverse Events (%): Myalgia: 9%
  Treatment-Emergent Adverse Events (%): Rhinitis: 4%
  Treatment-Emergent Adverse Events (%): Vision Abnormalities: 0%
Unit dose 25 mg
  Treatment-Emergent Adverse Events (%): Back Pain: 18%
  Treatment-Emergent Adverse Events (%): Conjunctivitis: 0%
  Treatment-Emergent Adverse Events (%): Dyspepsia: 19%
  Treatment-Emergent Adverse Events (%): Eyelid Edema: 1%
  Treatment-Emergent Adverse Events (%): Flushing: 0%
  Treatment-Emergent Adverse Events (%): Headache: 29%
  Treatment-Emergent Adverse Events (%): Myalgia: 16%
  Treatment-Emergent Adverse Events (%): Rhinitis: 4%
  Treatment-Emergent Adverse Events (%): Vision Abnormalities: 0%
Unit dose 50 mg
  Treatment-Emergent Adverse Events (%): Back Pain: 24%
  Treatment-Emergent Adverse Events (%): Conjunctivitis: 2%
  Treatment-Emergent Adverse Events (%): Dyspepsia: 20%
  Treatment-Emergent Adverse Events (%): Eyelid Edema: 2%
  Treatment-Emergent Adverse Events (%): Flushing: 3%
  Treatment-Emergent Adverse Events (%): Headache: 34%
  Treatment-Emergent Adverse Events (%): Myalgia: 20%
  Treatment-Emergent Adverse Events (%): Rhinitis: 0%
  Treatment-Emergent Adverse Events (%): Vision Abnormalities: 0%
Unit dose 100 mg
  Treatment-Emergent Adverse Events (%): Back Pain: 22%
  Treatment-Emergent Adverse Events (%): Conjunctivitis: 5%
  Treatment-Emergent Adverse Events (%): Dyspepsia: 25%
  Treatment-Emergent Adverse Events (%): Eyelid Edema: 3%
  Treatment-Emergent Adverse Events (%): Flushing: 7%
  Treatment-Emergent Adverse Events (%): Headache: 46%
  Treatment-Emergent Adverse Events (%): Myalgia: 29%
  Treatment-Emergent Adverse Events (%): Rhinitis: 2%
  Treatment-Emergent Adverse Events (%): Vision Abnormalities: 0%
[1]
  flushing: flushing was essentially eliminated
  vision abnormalities: no vision abnormalities were reported
